From US20090124624A1, “SUBSTITUTED 1-AMINOPHTHALAZINE DERIVATIVES, PREPARATION THEREOF AND THERAPEUTIC APPLICATION THEREOF” (SANOFI-AVENTIS, priority 2005, published 2009)
Where a name gives a salt, the structure may show the parent alone.

Columns and labels:
MCH1 receptor [1] = target: T1, MCH1 receptor (Mus musculus, UniProt Q8JZL2); experiment: Displacement of [125I]-Tyr-S36057 binding to MCH1 receptors, mouse brain membrane preparations; conditions: in mice, brain membranes, read-out: IC50 (concentration that inhibits 50% of the specific binding)
T1 construct: from tissue; host or cells: mouse brain membranes
T1 sequence (Q8JZL2 whole entry): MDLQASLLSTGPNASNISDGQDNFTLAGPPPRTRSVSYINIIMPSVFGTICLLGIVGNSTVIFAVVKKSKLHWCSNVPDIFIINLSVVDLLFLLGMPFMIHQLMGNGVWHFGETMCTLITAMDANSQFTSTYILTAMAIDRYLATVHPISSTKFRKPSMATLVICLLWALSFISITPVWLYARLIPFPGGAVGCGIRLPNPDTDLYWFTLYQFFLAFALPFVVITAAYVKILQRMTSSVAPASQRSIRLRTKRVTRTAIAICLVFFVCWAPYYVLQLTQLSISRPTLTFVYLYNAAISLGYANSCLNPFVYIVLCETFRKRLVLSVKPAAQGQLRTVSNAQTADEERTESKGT
Experimental: (§1) The measurement of the affinity of the compounds of the invention for the MCH receptors was performed by studying the displacement of the binding of a radiolabelled derivative of MCH to the MCH1 receptors. This study was performed on rat and/or mouse brain membrane preparations according to the protocol described below.
(§2) In anticipation of the binding studies, the brains are diluted in HEPES buffer 25 mM (pH: 7.4) containing MgCl2 5 mM, CaCl2 1 mM, homogenized using a Polytron blender for 3 times 20 seconds (speed 25), and are then ultracentrifuged at 22000 rpm and at +4° C. for 30 minutes. The centrifugation pellet is taken up in the same buffer and the membranes are divided into aliquots and stored frozen at −80° C. until the time of use. The membranes are warmed to room temperature and then incubated in the presence of the test compounds, and of […] of an MCH-based radiolabelled molecule, [^125I]-Tyr-S36057 (8-amino-3,6-dioxyoctanoyl MCH 6-17 sold by Perkin-Elmer), in HEPES buffer 25 mM (pH: 7.4) containing MgCl2 5 mM, CaCl2 1 mM, bacitracin 140 mg/L, phenanthroline 1 mM and 0.2% bovine serum albumin. […] The radioactivity retained on the filters is measured using a Gamma scintillation counter. The non-specific binding is determined in the presence of 1 μM of non-radiolabelled S36057. […]

MCH1 receptor [2] = target: T2, MCH1 receptor (Rattus norvegicus, UniProt P97639); experiment: Displacement of [125I]-Tyr-S36057 binding to MCH1 receptors, rat brain membrane preparations; conditions: in rats, brain membranes, read-out: IC50 (concentration that inhibits 50% of the specific binding)
T2 construct: from tissue; host or cells: rat brain membranes
T2 sequence (P97639 whole entry): as the sequence (Q8JZL2 whole entry) above, with A5T, F24L, A27P, P29S, R34G, A138T counted along it
Experimental: as §1, §2

IC50 (MCH1 receptor [1]) [µM] | IC50 (MCH1 receptor [2]) [µM] | Structure (SMILES)
0.0002 | 0.0005 | COc1ccc2c(C3CCN(Cc4ccccc4)CC3)nnc(NC3CCN(Cc4ccc5c(c4)OCO5)CC3)c2c1 [Example 1, N-[1-(1,3-Benzodioxol-5-ylmethyl)piperidin-4-yl]-4-(1-benzylpiperidin-4-yl)-7-methoxyphthalazin-1-amine Trihydrochloride]
0.038 | 0.052 | COc1ccc(-c2nnc(NC3CCN(Cc4ccc(OCCCN(C)C)cc4)CC3)c3cc(OC)ccc23)cc1 [Example 3, N-(1-[{4-[3-(Dimethylamino)propoxy]benzyl}piperidin-4-yl)-7-methoxy-4-(4-methoxy-phenyl)phthalazin-1-aminetrihydrochloride]
